Source: US11766419B2, “Mebeverine as soluble epoxide hydrolase inhibitor” (Banasthali Vidyapith, priority 2021, dated 2023)
“And” between values parts separate entries of the source, which are not always exact repeats. Identical values can stand only once.

Experiments:
[1] = tested on: angiotensin-II induced hypertensive rats; assay: Angiotensin II induced hypertension, blood pressure; format: in vivo, rat
Method: Wistar albino male rats were divided into four experimental groups (I, II, III and IV). Groups II-IV were infused with Angiotensin II at a continuous rate via subcutaneously implanted osmotic mini pump for 7 days. After induction of high blood pressure, (>140/90 mm of Hg), Groups III and IV were administered with mebeverine twice daily for five consecutive days at 10 mg/kg and 20 mg/kg doses respectively. At the end of this experimental period SAP, DAP and MAP were measured. The results are tabulated below in Tables 3A, 3B, and 3C, respectively, and are plotted in FIGS. 3a, 3b and 3c.

[2] = tested on: isolated rat aortic strip; assay: Ex-vivo relaxation of KCl pre-constricted isolated rat aortic strip; settings: aortic rings constricted with 80 mmol KCl
Method: Aortic rings were suspended in organ baths containing a modified Krebs buffer and bubbled with a mixture of 95% O2/5% CO2. Rings were connected to an isometric force transducer, resting tension was set to 5 g and constricted with 80 mmol KCl. The relaxation of these pre-constricted aortic trips at different concentrations of mebeverine (10^−9-10^−[…]) are tabulated in Table 2 and plotted in FIG. 2.

[3] = tested on: Triton WR-1339 induced hyperlipidaemic rats; assay: TBAR and SOD level in hepatic tissue, Triton WR-1339 induced hyperlipidemia; format: in vivo, rat
Method: Wistar albino male rats were divided into four experimental groups (I, II, III and IV). Groups II-IV were treated with intraperitoneal injection of Triton WR-1339 (200 mg/kg in 2% gum acacia) in 12 h fasted rats to induce hyperlipidemia. Group III and IV were orally administered with Mebeverine twice daily for 3 days at 10 mg/kg and 20 mg/kg. After 48 h, induction of hyperlipidemia blood serum was investigated for total cholesterol and triglycerides. Blood samples were collected from all experimental rats on day 6 (4 days after start of treatment), and, subsequently, serum was separated for analysis of serum lipid profile parameters and CRI/AI. Liver was excised and stored at −80° C. until biochemical parameters in hepatic tissue samples were analysed. The results are tabulated below in Table 6 and plotted in FIGS. 7 (a-e) and 8.
In addition, the effect on oxidative stress markers on hepatic tissue were also observed. The results are shown in Table 7 and plotted in FIGS. 9 and 10.

[4] = tested on: DOCA-induced hypertensive rats; assay: SOD and TBAR level in heart and aortic tissue, DOCA induced hypertension; format: in vivo, rat
Method: Wistar albino male rats were divided into four experimental groups (I, II, III and IV). Groups (II-IV) were administered with DOCA (20 mg/kg in 5% DMSO) intraperitoneally and drinking water was replaced by 2% NaCl. […] At the end of this experimental period SAP, DAP and MAP were measured. The results are tabulated below in Tables 4A, 4B and 4C, respectively, and are plotted in FIGS. 4a, 4b and 4c. Additionally, the levels of oxidative stress biomarkers, superoxide dismutase (SOD) and thiobarbituric acid (TBARs)s in heart and aortic tissue were also measured (Cayman commercial kit). The results are tabulated in Table 5 and plotted in FIGS. 5a and 5b (TBAR level) and 6a and 6b (SOD level).

[5] = tested on: Lipopolysaccharide (LPS)-induced hyperlipidaemic rats; assay: LPS-induced hyperlipidemia, serum lipid profile and CRI/AI; format: in vivo, rat; settings: for AI: Atherogenic index; for CRI: Coronary risk index; for Cholesterol / HDL / LDL / Triglycerides / VLDL: serum
Method: Wistar albino male rats were divided into different experimental groups—Single dose of 10 mg/kg, i.p. of LPS was administered to all the groups (II-IV). After 3 days of induction mebeverine was orally given twice daily for 5 days to groups (III-IV). After last dose, on day 5, blood samples were collected from all experimental rats for analysis of serum lipid profile parameters and CRI/AI. The results are tabulated below in Table 8 and plotted in FIGS. 11 (a-e) and 12. Biochemical estimations in hepatic tissue samples were also analyzed.

[6] = 10 mg/kg orally twice daily for 5 days
[7] = 20 mg/kg orally twice daily for 5 days

Compound `CCN(CCCCOC(=O)c1ccc(OC)c(OC)c1)C(C)Cc1ccc(OC)cc1` (centres unmarked) [Mebeverine] has a DAP ([1]; 10 mg/kg twice daily, D 4) of 95 ± 11.70 mm Hg, an MAP ([1]; 10 mg/kg twice daily, D 4) of 110 ± 16.78 mm Hg and an SAP ([1]; 10 mg/kg twice daily, D 4) of 146 ± 5.370 mm Hg. It also gave a DAP ([1]; 10 mg/kg twice daily, D 5) of 92 ± 4.24 mm Hg, an MAP ([1]; 10 mg/kg twice daily, D 5) of 108 ± 1.07 mm Hg and an SAP ([1]; 10 mg/kg twice daily, D 5) of 140 ± 2.120 mm Hg. The DAP ([1]; 20 mg/kg twice daily, D 0) was 152 ± 1.40 mm Hg, the MAP ([1]; 20 mg/kg twice daily, D 0) was 170 ± 4.30 mm Hg and the SAP ([1]; 20 mg/kg twice daily, D 0) was 193 ± 3.530 mm Hg. It also gave a DAP ([1]; 20 mg/kg twice daily, D 3) of 109 ± 28.80 mm Hg, an MAP ([1]; 20 mg/kg twice daily, D 3) of 128 ± 7.07 mm Hg and an SAP ([1]; 20 mg/kg twice daily, D 3) of 147 ± 5.600 mm Hg. It also gave a DAP ([1]; 20 mg/kg twice daily, D 4) of 86 ± 1.70 mm Hg, an MAP ([1]; 20 mg/kg twice daily, D 4) of 98 ± 1.51 mm Hg and an SAP ([1]; 20 mg/kg twice daily, D 4) of 123 ± 7.28 mm Hg. It also gave a DAP ([1]; 20 mg/kg twice daily, D 5) of 82 ± 3.53 mm Hg, an MAP ([1]; 20 mg/kg twice daily, D 5) of 92 ± 2.82 mm Hg and an SAP ([1]; 20 mg/kg twice daily, D 5) of 119 ± 7.07 mm Hg. For the same compound, the “Effect on high blood pressure (in words)” value ([1]; both 10 mg/kg and 20 mg/kg, P<0.001) was “reduces the high blood pressure”, the “% relaxation” value ([2]; Mebeverine conc 10^−4 nM (maximal relaxant effect)) was 79.3±0.01% and 79.3% and the “% relaxation” value ([2]; Mebeverine conc 10^−5 nM) was 71.1%. The “% relaxation” value ([2]; Mebeverine conc 10^−6 nM) was 64.9%, the “% relaxation” value ([2]; Mebeverine conc 10^−7 nM) was 52.2% and the “% relaxation” value ([2]; Mebeverine conc 10^−8 nM) was 23.9%. The “% relaxation” value ([2]; Mebeverine conc 10^−9 nM) was 14.5%, the SOD ([3]; 10 mg/kg) was 65.13 ± 0.22 U/g protein and the TBAR ([3]; 10 mg/kg) was 0.78 ± 0.01 nmol/mg protein. The SOD ([3]; 20 mg/kg) was 87.27 ± 0.30 U/g protein, the TBAR ([3]; 20 mg/kg) was 0.70 ± 0.01 nmol/mg protein and the “SOD Level” value ([4]; Aortic tissue, 10 mg/kg) was 70.20 ± 0.28 U/g tissue. For the same compound, the TBAR level ([4]; Aortic tissue, 10 mg/kg) was 0.87 ± 0.02 nmol/mg protein, the “SOD Level” value ([4]; Aortic tissue, 20 mg/kg) was 90.21 ± 0.21 U/g tissue and the TBAR level ([4]; Aortic tissue, 20 mg/kg) was 0.71 ± 0.03 nmol/mg protein. The “SOD Level” value ([4]; Heart tissue, 10 mg/kg) was 73.04 ± 0.29 U/g tissue, the TBAR level ([4]; Heart tissue, 10 mg/kg) was 0.88 ± 0.03 nmol/mg protein and the “SOD Level” value ([4]; Heart tissue, 20 mg/kg) was 86.24 ± 0.37 U/g tissue. For the same compound, the TBAR level ([4]; Heart tissue, 20 mg/kg) was 0.68 ± 0.01 nmol/mg protein, the “SOD activity (in words)” value ([4]; aortic and heart tissue) was “significant dose dependent increase” and the “TBARs concentration (in words)” value ([4]; aortic and heart tissue) was “significant dose dependent decrease”. It also gave an AI [5, 6] of 2.14 ± 0.02, an AI [5, 7] of 1.01 ± 0.17 and a CRI [5, 6] of 3.14 ± 0.14. The CRI [5, 7] was 2.01 ± 0.17, the Cholesterol [5, 6] was 132.5 ± 4.24 mg/dL and the HDL [5, 6] was 42.0 ± 1.41 mg/dL. For the same compound, the LDL [5, 6] was 58.3 ± 3.25 mg/dL, the Triglycerides [5, 6] was 158.5 ± 3.58 mg/dL and the VLDL [5, 6] was 31.6 ± 0.34 mg/dL. The Cholesterol [5, 7] was 103.50 ± 1.41 mg/dL, the HDL [5, 7] was 51.00 ± 3.53 mg/dL and the LDL [5, 7] was 30.0 ± 3.25 mg/dL. It also gave a Triglycerides [5, 7] of 110.00 ± 2.82 mg/dL and a VLDL [5, 7] of 22.0 ± 0.56 mg/dL.
